Test results: publication PMC9520911, “New quinoline-based triazole hybrid analogs as effective inhibitors of α-amylase and α-glucosidase: Preparation, in vitro evaluation, and molecular docking along with in silico studies” (Frontiers in Chemistry, 2022)

Columns and labels:
[1] = molecular target: T1, Porcine pancreatic α-amylase (Sus scrofa, UniProt P00690); assay: α-amylase inhibition assay (starch / dinitrosalicylic acid); assay type: biochemical; conditions: for IC50: in vitro, mean ± SEM
T1 sequence (P00690 16-511): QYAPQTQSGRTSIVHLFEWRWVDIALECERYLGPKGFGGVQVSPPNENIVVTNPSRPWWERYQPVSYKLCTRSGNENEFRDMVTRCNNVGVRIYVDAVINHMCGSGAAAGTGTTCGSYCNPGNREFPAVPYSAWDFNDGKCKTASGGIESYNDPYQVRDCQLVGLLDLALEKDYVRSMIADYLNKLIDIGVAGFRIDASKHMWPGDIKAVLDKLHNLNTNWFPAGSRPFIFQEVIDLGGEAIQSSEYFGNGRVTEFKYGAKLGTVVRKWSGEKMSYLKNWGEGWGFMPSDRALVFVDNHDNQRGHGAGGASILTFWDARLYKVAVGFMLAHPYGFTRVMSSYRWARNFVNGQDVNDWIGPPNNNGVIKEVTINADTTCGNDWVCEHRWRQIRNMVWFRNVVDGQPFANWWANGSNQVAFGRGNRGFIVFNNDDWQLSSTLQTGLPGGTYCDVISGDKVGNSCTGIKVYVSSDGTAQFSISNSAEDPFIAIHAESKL
Description: After preincubation, 40 μL of a 1% starch solution in 0.02 M sodium phosphate buffer (pH 6.9 with 0.006 M sodium chloride) was added to each tube at 5 s intervals. […] The reaction was stopped with 100 μL of dinitro salicylic acid color reagent. The test tubes were then incubated in a boiling water bath for 5 min and cooled to room temperature. The reaction mixture was then diluted after adding 900 μL distilled water and the absorbance was measured at 540 nm.
Ac = the absorbance of the control
As = the absorbance of the sample

Row | SMILES | IC50 [1] [µM] | melting point | more potency than scaffold 7d (α-amylase) ([1]; relative to 7d) [folds] | enhanced potency than standard acarbose drug (α-amylase) ([1]; relative to acarbose)
1 | S=c1[nH]nc(-c2ccc3cccnc3c2)n1-c1ccc(Br)cc1 [17d, 4-(4-Bromophenyl)-5-(quinolin-7-yl)-2,4-dihydro-3H-1,2,4-triazole-3-thione] | 19.2 ± 0.3 | 132 to 133 °C | – | –
2 | S=c1[nH]nc(-c2ccc3cccnc3c2)n1-c1ccc(-c2ccccc2)cc1 [19d] | 18.5 ± 0.3 | – | – | –
3 | O=[N+]([O-])c1ccccc1-n1c(-c2ccc3cccnc3c2)n[nH]c1=S [5d, 4-(2-Nitrophenyl)-5-(quinolin-7-yl)-2,4-dihydro-3H-1,2,4-triazole-3-thione] | 5.3 ± 0.2 | 139 to 140 °C | – | –
4 | S=c1[nH]nc(-c2ccc3cccnc3c2)n1-c1ccccc1 [1d, 4-Phenyl-5-(quinolin-7-yl)-2,4-dihydro-3H-1,2,4-triazole-3-thione] | 40.2 ± 0.7 | 137 to 138 °C (dec.) | – | –
5 | Fc1ccccc1-n1c(-c2ccc3cccnc3c2)n[nH]c1=S [9d, 4-(2-Fluorophenyl)-5-(quinolin-7-yl)-2,4-dihydro-3H-1,2,4-triazole-3-thione] | 1.5 ± 0.1 | 129 to 130 °C | – | –
6 | O=[N+]([O-])c1ccc(-n2c(-c3ccc4cccnc4c3)n[nH]c2=S)cc1 [7d, 4-(4-Nitrophenyl)-5-(quinolin-7-yl)-2,4-dihydro-3H-1,2,4-triazole-3-thione] | 11.6 ± 0.2 | 127 to 128 °C | – | –
7 | O=[N+]([O-])c1cccc(-n2c(-c3ccc4cccnc4c3)n[nH]c2=S)c1 [6d, 4-(3-Nitrophenyl)-5-(quinolin-7-yl)-2,4-dihydro-3H-1,2,4-triazole-3-thione] | 21.4 ± 0.3 | 130 to 131 °C | – | –
8 | Cc1ccc(-n2c(-c3ccc4cccnc4c3)n[nH]c2=S)cc1 [4d, 5-(Quinolin-7-yl)-4-(p-tolyl)-2,4-dihydro-3H-1,2,4-triazole-3-thione] | 21.6 ± 0.4 | 127 to 128 °C | – | –
9 | COc1ccc(-n2c(-c3ccc4cccnc4c3)n[nH]c2=S)cc1 [8d, 4-(4-Methoxyphenyl)-5-(quinolin-7-yl)-2,4-dihydro-3H-1,2,4-triazole-3-thione] | – | 134 to 135 °C | – | –
10 | S=c1[nH]nc(-c2ccc3cccnc3c2)n1-c1ccccc1Cl [12d, 4-(2-Chlorophenyl)-5-(quinolin-7-yl)-2,4-dihydro-3H-1,2,4-triazole-3-thione] | 4.3 ± 0.1 | 136 to 137 °C | – | –
11 | S=c1[nH]nc(-c2ccc3cccnc3c2)n1-c1cccc(Br)c1 [16d, 4-(3-Bromophenyl)-5-(quinolin-7-yl)-2,4-dihydro-3H-1,2,4-triazole-3-thione] | 31.8 ± 0.6 | 130 to 131 °C | – | –

Continued by falling IC50 [1], values first:

Row | IC50 [1] [µM] | melting point | more potency than scaffold 7d (α-amylase) ([1]; relative to 7d) [folds] | enhanced potency than standard acarbose drug (α-amylase) ([1]; relative to acarbose) | SMILES
12 | 32.3 ± 0.6 | 136 to 137 °C | – | – | Cc1cccc(-n2c(-c3ccc4cccnc4c3)n[nH]c2=S)c1 [3d, 5-(Quinolin-7-yl)-4-(m-tolyl)-2,4-dihydro-3H-1,2,4-triazole-3-thione]
13 | 22.6 ± 0.6 | 139 to 140 °C | – | – | Cc1ccccc1-n1c(-c2ccc3cccnc3c2)n[nH]c1=S [2d, 5-(Quinolin-7-yl)-4-(o-tolyl)-2,4-dihydro-3H-1,2,4-triazole-3-thione]
14 | 17.2 ± 0.3 | 135 to 136 °C | – | – | S=c1[nH]nc(-c2ccc3cccnc3c2)n1-c1ccccc1Br [15d, 4-(2-Bromophenyl)-5-(quinolin-7-yl)-2,4-dihydro-3H-1,2,4-triazole-3-thione]
15 | 14.6 ± 0.3 | 141 to 142 °C | – | – | S=c1[nH]nc(-c2ccc3cccnc3c2)n1-c1cccc(Cl)c1 [13d, 4-(3-Chlorophenyl)-5-(quinolin-7-yl)-2,4-dihydro-3H-1,2,4-triazole-3-thione]
16 | 6.4 ± 0.3 | 131 to 132 °C | 2 | – | S=c1[nH]nc(-c2ccc3cccnc3c2)n1-c1ccc(Cl)cc1 [14d, 4-(4-Chlorophenyl)-5-(quinolin-7-yl)-2,4-dihydro-3H-1,2,4-triazole-3-thione]
17 | 2.1 ± 0.1 | 128 to 129 °C | – | – | Fc1cccc(-n2c(-c3ccc4cccnc4c3)n[nH]c2=S)c1 [10d, 4-(3-Fluorophenyl)-5-(quinolin-7-yl)-2,4-dihydro-3H-1,2,4-triazole-3-thione]
18 | 1.8 ± 0.1 | 133 to 134 °C | – | – | S=c1[nH]nc(-c2ccc3cccnc3c2)n1-c1ccc(Cl)c(Cl)c1 [18d, 4-(3,4-Dichlorophenyl)-5-(quinolin-7-yl)-2,4-dihydro-3H-1,2,4-triazole-3-thione]
19 | 0.8 ± 0.05 | 131 to 132 °C | – | ten-fold | Fc1ccc(-n2c(-c3ccc4cccnc4c3)n[nH]c2=S)cc1 [11d, 4-(4-Fluorophenyl)-5-(quinolin-7-yl)-2,4-dihydro-3H-1,2,4-triazole-3-thione]
